{"source": "paper PMC4969713", "about": "(Journal of Alzheimer's Disease, 2016)", "key": {"laboratory rabbits": {"system": "laboratory rabbits", "experiment": "30 days toxicity, rabbits", "format": "in vivo", "conditions": "4 mg/kg PO daily"}, "Solubility in water": {"experiment": "Solubility in water", "format": "physicochemical", "conditions": "pH 7.4"}, "5-HT7 receptor": {"target": "5-HT7 receptor (Homo sapiens, UniProt P34969)", "sequence (P34969 whole entry)": "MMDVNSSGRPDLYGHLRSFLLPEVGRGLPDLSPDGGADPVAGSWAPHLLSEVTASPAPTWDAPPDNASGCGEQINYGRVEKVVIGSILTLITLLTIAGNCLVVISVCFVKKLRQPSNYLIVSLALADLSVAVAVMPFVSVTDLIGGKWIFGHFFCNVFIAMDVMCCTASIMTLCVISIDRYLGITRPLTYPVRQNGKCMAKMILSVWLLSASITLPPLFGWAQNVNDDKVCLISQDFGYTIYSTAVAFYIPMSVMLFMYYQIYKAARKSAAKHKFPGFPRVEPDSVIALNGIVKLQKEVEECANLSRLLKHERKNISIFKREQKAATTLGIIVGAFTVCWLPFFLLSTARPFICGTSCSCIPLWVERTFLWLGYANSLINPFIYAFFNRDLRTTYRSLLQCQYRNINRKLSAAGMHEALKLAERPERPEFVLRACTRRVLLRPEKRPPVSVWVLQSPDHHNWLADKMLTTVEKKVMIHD", "conditions": "Table 2; cited from earlier work"}}, "note": "pKi: −log10 of the molar value. Counter-ions that a name gives are not always drawn.", "data": [{"molecule": "Cc1ccc2c(c1)c1c(n2CCc2ccccc2)CCN(C)C1", "note": "[AVN-101, 2,8-dimethyl-5-penethyl-2,3,4,5-tetra-hydro-1h-pyrido[[4,3-B]]indole hydrochloride]", "values": [{"measurement": "body weight, plasma biochemistry markers, macro- and microscopic observations", "setting": "laboratory rabbits", "value": "No changes"}, {"measurement": "kidney finding, one of 3 males", "setting": "laboratory rabbits", "value": "small infarctions in cortical substance of the kidneys"}, {"measurement": "ovary finding, one of 3 females", "setting": "laboratory rabbits", "value": "ovary hypo function"}, {"measurement": "solubility", "setting": "Solubility in water", "value": 194, "unit": "mg/mL"}, {"measurement": "pKi", "setting": "5-HT7 receptor", "value": 9.82}]}]}
